Assays:
PKAC-ALPHA = molecular target: T1, PKAC-ALPHA (Homo sapiens, UniProt P17612); assay: Kinome screen, PKAC-ALPHA; type: binding; details: screened at 1 μM
T1 construct: made in house; host or cells: T7 phage in E. coli (BL21-derived) or HEK-293
Procedure: (§1) Kinase-tagged T7 phage strains were grown in parallel in 24-well blocks in an E. coli host derived from the BL21 strain. E. coli were grown to log-phase and infected with T7 phage from a frozen stock (multiplicity of infection=0.4) and incubated with shaking at 32° C. until lysis (90-150 minutes). The lysates were centrifuged (6,000×g) and filtered (0.2 μm) to remove cell debris. The remaining kinases were produced in HEK-293 cells and subsequently tagged with DNA for qPCR detection.
(§2) Streptavidin-coated magnetic beads were treated with biotinylated small molecule ligands for 30 minutes at room temperature to generate affinity resins for kinase assays. The liganded beads were blocked with excess biotin and washed with blocking buffer (SeaBlock (Pierce), 1% BSA, 0.05% Tween 20, 1 mM DTT) to remove unbound ligand and to reduce non-specific phage binding. […] Test compounds were prepared as 40× stocks in 100% DMSO and directly diluted into the assay. All reactions were performed in polypropylene 384-well plates in a final volume of 0.04 ml. […] The beads were then re-suspended in elution buffer (1×PBS, 0.05% Tween 20, 0.5 μM non-biotinylated affinity ligand) and incubated at room temperature with shaking for 30 minutes. The kinase concentration in the eluates was measured by qPCR.

IL-6 induced pSTAT3 = assay: Pharmacodynamic assay: inhibition of IL6-induced pSTAT3 in rats; type: in vivo, rat; details: 50 μg intravitreal, suspension formulation, 3 day pre-treatment prior to IL-6 challenge, female Lewis rats
Procedure: The ability of a single intravitreal administration of test compound to inhibit IL-6 induced pSTAT3 was measured in rat retina/choroid homogenates.
A suspension formulation was prepared by combining compound 1 of Example 2, with 0.5% hydroxypropyl methylcellulose (HPMC E5 LV), 0.02% Tween 80, and 9 mg/mL sodium chloride in purified water to attain a target concentration of 10 mg/mL.
Female Lewis rats were intravitreally (IVT) dosed (5 μL per eye) with the suspension formulation. Three days later, IL-6 (Peprotech; 0.1 mg/mL; 5 μL per eye) or vehicle was intravitreally administered to induce pSTAT3. Ocular tissues were dissected one hour after the second IVT injection with IL-6. The retina/choroid tissues were homogenized and pSTAT3 levels were measured using an ELISA (Cell Signaling Technology). The percent inhibition of IL-6-induced pSTAT3 was calculated in comparison to the vehicle/vehicle and vehicle/IL-6 groups. Inhibition of greater than 100% reflects a reduction of pSTAT3 levels to below those observed in the vehicle/vehicle group.

[1] = tested on: BEAS-2B human lung epithelial cells; assay: CellTiter-Glo cell viability/cytotoxicity assay; type: cell-based; details: BEAS-2B cells, 48 h, concentration at 15% inhibition threshold
Procedure: A CellTiter-Glo luminescent cell viability/cytotoxicity assay was carried out in BEAS-2B human lung epithelial cells (ATCC) under the normal growth condition.
Cells were grown at 37° C. in a 5% CO2 humidified incubator in 50% DMEM/50% F-12 medium (Life Technologies) supplemented with 10% FBS (Hyclone), 100 U/mL penicillin, 100 μg/mL streptomycin (Life Technologies), and 2 mM GlutaMAX (Life Technologies). On day 1 of the assay, cells were seeded at a 500 cells/well density in white 384-well tissue culture plates (Corning) with 25 μL medium, and were allowed to adhere overnight in the incubator. On day 2 of the assay, 5 μL of medium containing dose-responses of test compounds was added, and incubated at 37° C. for 48 h. 30 μL of CellTiter-Glo detection solution (Promega) was subsequently added, mixed on an orbital shaker for 5 min, and incubated for additional 10 min before being read on the EnVision reader. Luminescence signals were recorded and percent DMSO control values were calculated.
For dose-response analysis, percent DMSO control data were plotted vs. compound concentrations to derive dose-response curves by line connecting each data point. The concentration at which each curve crosses the 15% inhibition threshold is defined as CC15.

IFNγ induced pSTAT1 = assay: Pharmacodynamic assay: inhibition of IFNγ-induced pSTAT1 in rabbit eyes; type: in vivo; details: rabbits
Procedure: The ability of a single intravitreal administration of test compound to inhibit interferon-gamma (IFNγ) induced phosphorylation of STAT1 protein (pSTAT1) was measured in rabbit retina/choroid tissue.
A suspension formulation was prepared by combining compound 1 of Example 2 (Form 1), with 0.5% hydroxypropyl methylcellulose (HPMC E5), 0.02% Tween 80, and 9 mg/mL sodium chloride in purified water to attain a target concentration of 20 mg/mL.
Male, New Zealand White rabbits (Liveon Biolabs, India) were used for the studies. Animals were acclimated after arrival at the research facilities (Jubilant Biosys Ltd., India). Each rabbit was given a total of two intravitreal (IVT) injections with a total dose volume of 50 μL per eye. The first IVT injection (45 μL per eye) delivered 0.9 mg of test compound or vehicle. […] On the day of the injections, rabbits were anesthetized with an intramuscular injection of ketamine (35 mg/kg) and xylazine (5 mg/kg). Once deeply anesthetized, each eye was rinsed with sterile saline and IVT injections were performed using a 0.5 mL insulin syringe (50 units=0.5 mL) with a 31-gauge needle at the supra-nasal side of the both eyes by marking the position with a Braunstein fixed caliper (2¾″) 3.5 mm from the rectus muscle and 4 mm from the limbus.
Tissues were collected 2 hours after the second IVT injection with IFNγ. Retina/choroid tissues (R/C) were collected and homogenized, and pSTAT1 levels were measured by quantitative Western Blot on the ProteinSimple WES instrument. The percent inhibition of IFNγ-induced pSTAT1 was calculated in comparison to the vehicle/vehicle and vehicle/IFNγ groups.
Male, New Zealand White rabbits (Liveon Biolabs, India) were used for the studies. Animals were acclimated after arrival at the research facilities (Jubilant Biosys Ltd., India). Each rabbit was given a total of two intravitreal (IVT) injections with a total dose volume of 50 μL per eye. The first IVT injection (45 μL per eye) delivered 500 μg, 150 μg, or 50 μg of test compound or vehicle. Two weeks later, a second IVT injection (5 μL per eye) delivered IFNγ (1 μg/eye; stock solution 1 mg/mL; Kingfisher Biotech) or vehicle for the induction of IP-10. On the day of the injections, rabbits were anesthetized with an intramuscular injection of ketamine (35 mg/kg) and xylazine (5 mg/kg). Once deeply anesthetized, each eye was rinsed with sterile saline and IVT injections were performed using a 0.5 mL insulin syringe (50 units=0.5 mL) with a 31-gauge needle at the supra-nasal side of the both eyes by marking the position with a Braunstein fixed caliper (2¾″) 3.5 mm from the rectus muscle and 4 mm from the limbus.

SYK = molecular target: T2, SYK (Homo sapiens, UniProt P43405); assay: Kinome screen, SYK; type: binding; details: screened at 1 μM
T2 construct: made in house; host or cells: T7 phage in E. coli (BL21-derived) or HEK-293
Procedure: as §1, §2

**Q.** Which results are given for `CCc1cc(O)c(F)cc1-c1cc(F)c2c(-c3nc4c([nH]3)CCN(C(=O)CN3CCOCC3)C4)n[nH]c2c1` [Compound 1, 1-(2-(6-(2-ethyl-5-fluoro-4-hydroxyphenyl)-4-fluoro-1H-indazol-3-yl)-1,4,6,7-tetrahydro-5H-imidazo[4,5-c]pyridin-5-yl)-2-morpholinoethan-1-one]?
**A.** inhibition at 1 µM (PKAC-ALPHA): 20%; inhibition of IL-6-induced pSTAT3 in retina/choroid tissues (IL-6 induced pSTAT3): 116%; CC15 [1]: 3.16 µM; inhibition of IFNγ-induced pSTAT1 in retina/choroid (IFNγ induced pSTAT1; Form 1 suspension, 0.9 mg intravitreal, 1 week pre-treatment): 85%; inhibition of IFNγ-induced pSTAT1 in retina/choroid (IFNγ induced pSTAT1; Form 1 suspension, single intravitreal dose, 3 month pre-treatment): 76%; inhibition of IFNγ-induced pSTAT1 in retina/choroid (IFNγ induced pSTAT1; Form 2 suspension, 50 μg intravitreal, 2 week pre-treatment): 61%; inhibition of IFNγ-induced pSTAT1 in retina/choroid (IFNγ induced pSTAT1; Form 2 suspension, 150 μg intravitreal, 2 week pre-treatment): 58%; inhibition of IFNγ-induced pSTAT1 in retina/choroid (IFNγ induced pSTAT1; Form 2 suspension, 500 μg intravitreal, 2 week pre-treatment): 79%; inhibition at 1 µM (SYK): 46%

— patent publication US10493077B2, “Fused imidazo-piperidine JAK inhibitor compound” (THERAVANCE BIOPHARMA R&D IP, LLC, priority 2017, dated 2019)
